Peptide text beside a SMILES is read from it.
Key:
Hamster = experiment: Female Anti-Fertility test (Table I), implants counted at autopsy; type: in vivo; details: subc., saline, days (-4)-(-1), autopsy day 10
Procedure: In one study carried out with hamsters Thr-Pro-Arg-Lys as the diacetate was administered subcutaneously in isotonic solution at dosage levels of 2, […], once daily starting on the day of postovulatory discharge (-4) prior to mating. Treatment was continued until the fourth day after ovulation. The animals were mated and then sacrificed on the tenth day. The uterus was opened, and the number of implants counted.
TEST Female Anti-Fertility
ROUTE OF ADMINISTRATION Subc.
Once daily for four days, starting on the day
of postovulatory discharge, prior to mating.

hamsters = experiment: Control of pregnancy in hamsters, compound in phosphate buffer pH 7.1 subcutaneously or orally; type: in vivo, hamster

`C[C@@H](O)[C@H](N)C(=O)N1CCC[C@H]1C(=O)N[C@@H](CCCNC(=N)N)C(=O)N[C@@H](CCCCN)C(=O)O` [Thr-Pro-Arg-Lys, threonyl-prolyl-arginyl-lysine] (H-TPRK-OH) was tested, and the “Average No. of Implants” value (Hamster; daily dose 2.0 μg/100 mg) was 0.5, the “Total No. of Normal Fetuses” value (Hamster; daily dose 2.0 μg/100 mg) was 5 and the “Total No. of Resorbing Fetuses” value (Hamster; daily dose 2.0 μg/100 mg) was 0. For the same compound, the “No. of Animals with Implantations” value (Hamster; daily dose 2.0 μg/100 mg, 10/10 sperm +) was 1, the “Average No. of Implants” value (Hamster; daily dose 10.0 μg/100 mg) was 4.6 and the “Total No. of Normal Fetuses” value (Hamster; daily dose 10.0 μg/100 mg) was 46. The “Total No. of Resorbing Fetuses” value (Hamster; daily dose 10.0 μg/100 mg) was 3, the “No. of Animals with Implantations” value (Hamster; daily dose 10.0 μg/100 mg, 10/10 sperm +) was 4 and the “Average No. of Implants” value (Hamster; daily dose 100.0 μg/100 mg) was 5.9. The “Total No. of Normal Fetuses” value (Hamster; daily dose 100.0 μg/100 mg) was 53, the “Total No. of Resorbing Fetuses” value (Hamster; daily dose 100.0 μg/100 mg) was 1 and the “No. of Animals with Implantations” value (Hamster; daily dose 100.0 μg/100 mg, 9/10 sperm +) was 4. For the same compound, the number of pregnancies (hamsters; administered orally at 35 to 50 μg/100 gm/day) was “reduced to zero”, the “number of implantations per animal” value (hamsters; subcutaneous, phosphate buffer pH 7.1, at 0.7 mcg/gm/day) was “less than one” and the “effective dose (number of implantations per animal reduced to less than one)” value (hamsters; subcutaneous, phosphate buffer pH 7.1, calculated as free base) was 0.7 mcg/gm/day.
